# Test results as given in ChEMBL document CHEMBL5528082 (J Med Chem, 2024).
# What was measured:
# [1] = tested on: Dihydrofolate reductase (Staphylococcus aureus); settings: dose 100.0 nM
# Staphylococcus aureus [2] = assay: Antibacterial activity against TMP-resistant Staphylococcus aureus BHKS 227 incubated for 24 hrs by CLSI based broth microdilution assay; assay type: functional
# [3] = Cytotoxicity against HEK293 cells assessed as inhibition rate of cell growth at 100 uM incubated for 24 hrs by CCK8 assay relative to control; assay type: toxicity, cell-based; settings: human
# [4] = Cytotoxicity against human NCM460 cells assessed as inhibition rate of cell growth at 100 uM incubated for 24 hrs by CCK8 assay relative to control; assay type: toxicity, cell-based
# Staphylococcus aureus [5] = assay: Antibacterial activity against Staphylococcus aureus ATCC 25923 incubated for 24 hrs by CLSI based broth microdilution assay; assay type: functional
# Dihydrofolate reductase = Dihydrofolate reductase (Staphylococcus aureus, UniProt P0A017); assay: Inhibition of Staphylococcus aureus DHFR expressed in Escherichia coli BL21 (DE3) using DHF as substrate preincubated for 10 mins followed by substrate addition measured for 10 mins in presence of NADPH by spectrophotometry
# Staphylococcus aureus [6] = assay: Antibacterial activity against Staphylococcus aureus USA 300 incubated for 24 hrs by CLSI based broth microdilution assay; assay type: functional
# Staphylococcus aureus [7] = assay: Antibacterial activity against TMP-resistant Staphylococcus aureus BHKS 723 incubated for 24 hrs by CLSI based broth microdilution assay; assay type: functional
# Staphylococcus aureus [8] = assay: Antibacterial activity against TMP-resistant Staphylococcus aureus BHKS 721 incubated for 24 hrs by CLSI based broth microdilution assay; assay type: functional
# Chain of Dihydrofolate reductase (P0A017 whole entry): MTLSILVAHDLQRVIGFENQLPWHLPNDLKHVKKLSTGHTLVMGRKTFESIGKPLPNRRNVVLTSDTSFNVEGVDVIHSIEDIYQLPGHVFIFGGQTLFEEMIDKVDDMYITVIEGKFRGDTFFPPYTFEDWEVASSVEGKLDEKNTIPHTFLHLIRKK
SMILES,inhibition [1],MIC (Staphylococcus aureus [2]),"inhibition at 24 h, 100 µM [3]","inhibition at 24 h, 100 µM [4]",MIC (Staphylococcus aureus [5]),IC50 (Dihydrofolate reductase),MIC (Staphylococcus aureus [6]),MIC (Staphylococcus aureus [7]),MIC (Staphylococcus aureus [8])
COc1cc(C(C)C)c(Oc2cnc(N)nc2N)cc1-c1ccc(Cl)c(C(F)(F)F)c1,67.4%,2 µg/mL,41%,37.8%,0.5 µg/mL,142 nM,0.5 µg/mL,4 µg/mL,4 µg/mL
COc1cc(C(C)C)c(Oc2cnc(N)nc2N)cc1-c1ccc(C)cc1,9.88%,2 µg/mL,2.04%,55.5%,0.5 µg/mL,38.7 nM,0.5 µg/mL,16 µg/mL,16 µg/mL
COc1cc(C(C)C)c(Oc2cnc(N)nc2N)cc1-c1ccc2c(c1)OCO2,> 100%,2 µg/mL,26.8%,62.3%,0.5 µg/mL,34.8 nM,0.25 µg/mL,16 µg/mL,32 µg/mL
COc1cc(C(C)C)c(Oc2cnc(N)nc2N)cc1CC(C)C,> 100%,4 µg/mL,57.8%,67.4%,0.5 µg/mL,24.2 nM,0.5 µg/mL,16 µg/mL,16 µg/mL
COc1cc(C(C)C)c(Oc2cnc(N)nc2N)cc1-c1ccc(OC(F)(F)F)cc1,> 100%,1 µg/mL,43.5%,63.6%,0.25 µg/mL,19.1 nM,0.25 µg/mL,8 µg/mL,8 µg/mL
CCc1cc(Oc2cnc(N)nc2N)c(C(C)C)cc1OC,,2 µg/mL,38.8%,8.5%,0.25 µg/mL,24.7 nM,0.125 µg/mL,16 µg/mL,16 µg/mL
COc1ccc(Oc2cnc(N)nc2N)cc1-c1ccc(OC(F)(F)F)cc1,51.1%,2 µg/mL,39.4%,69.9%,0.002 µg/mL,15.9 nM,0.002 µg/mL,4 µg/mL,4 µg/mL
COc1cc(C(C)C)c(Oc2cnc(N)nc2N)cc1-c1ccc(C(=O)O)cc1,45.1%,< 0.25 µg/mL,29.9%,6.53%,0.063 µg/mL,4.44 nM,0.063 µg/mL,2 µg/mL,2 µg/mL
COc1cc(C(C)C)c(Oc2cnc(N)nc2N)cc1-c1cccc(C(F)(F)F)c1,82.9%,4 µg/mL,51.5%,74.6%,1 µg/mL,239 nM,1 µg/mL,16 µg/mL,16 µg/mL
COc1cc(C(C)C)c(Oc2cnc(N)nc2N)cc1C1CC1,35.3%,4 µg/mL,0.06%,4.06%,1 µg/mL,27.8 nM,0.5 µg/mL,32 µg/mL,16 µg/mL
COc1cc(C(C)C)c(Oc2cnc(N)nc2N)cc1-c1ccc2ccccc2c1,80.8%,1 µg/mL,13.5%,67.6%,0.5 µg/mL,148 nM,0.25 µg/mL,> 32 µg/mL,> 32 µg/mL
CCCCOc1cc(C(C)C)c(Oc2cnc(N)nc2N)cc1I,50.8%,1 µg/mL,42.2%,72.9%,0.125 µg/mL,36.7 nM,0.125 µg/mL,8 µg/mL,4 µg/mL
CC(C)c1cc(OCC2CCC2)c(I)cc1Oc1cnc(N)nc1N,61.3%,1 µg/mL,57.9%,13.2%,0.125 µg/mL,7.69 nM,0.125 µg/mL,4 µg/mL,4 µg/mL
CCCOc1cc(C(C)C)c(Oc2cnc(N)nc2N)cc1I,43.8%,0.5 µg/mL,47.4%,66.7%,0.016 µg/mL,45 nM,0.016 µg/mL,> 32 µg/mL,> 32 µg/mL
COc1cc(C(C)C)c(Oc2cnc(N)nc2N)cc1-c1ccc(F)cc1,27.2%,1 µg/mL,46.9%,60.3%,0.25 µg/mL,69.5 nM,0.25 µg/mL,16 µg/mL,16 µg/mL
COc1cc(C(C)C)c(Oc2cnc(N)nc2N)cc1-c1ccc(C(F)(F)F)c(Cl)c1,65.7%,4 µg/mL,42.1%,41.9%,1 µg/mL,,2 µg/mL,4 µg/mL,4 µg/mL
COc1cc(C(C)C)c(Oc2cnc(N)nc2N)cc1-c1ccccc1Cl,74.3%,16 µg/mL,37.8%,29%,4 µg/mL,,4 µg/mL,32 µg/mL,32 µg/mL
CCC(C)Oc1cc(C(C)C)c(Oc2cnc(N)nc2N)cc1I (stereo not drawn),50.8%,1 µg/mL,44.6%,70.7%,0.016 µg/mL,,0.016 µg/mL,4 µg/mL,4 µg/mL
CCCCOc1cc(C(C)C)c(Oc2cnc(N)nc2N)cc1-c1ccc(C(F)(F)F)cc1,90.9%,4 µg/mL,40.2%,42.3%,2 µg/mL,,4 µg/mL,4 µg/mL,4 µg/mL
COc1cc(C(C)C)c(Oc2cnc(N)nc2N)cc1-c1ccc(O)cc1,72.3%,0.5 µg/mL,22.9%,53.1%,0.125 µg/mL,,0.063 µg/mL,8 µg/mL,1 µg/mL
COc1cc(C(C)C)c(Oc2cnc(N)nc2N)cc1-c1ccc(-c2ccccc2)cc1,26.8%,2 µg/mL,31.5%,66%,0.5 µg/mL,,0.5 µg/mL,4 µg/mL,4 µg/mL
CCc1cc(Oc2cnc(N)nc2N)c(C(C)CC)cc1OC (stereo not drawn),4.32%,4 µg/mL,23.2%,48.4%,1 µg/mL,,1 µg/mL,32 µg/mL,16 µg/mL
COc1cc(C(C)C)c(Oc2cnc(N)nc2N)cc1-c1ccc(Cl)c(Cl)c1,60.8%,2 µg/mL,41%,34.1%,0.5 µg/mL,,3 µg/mL,8 µg/mL,8 µg/mL
